Converted amounts (≈) assume the structure as drawn.

The text below walks through data of ChEMBL document CHEMBL4038335, “Neuroactive Steroids. 2. 3α-Hydroxy-3β-methyl-21-(4-cyano-1H-pyrazol-1'-yl)-19-nor-5β-pregnan-20-one (SAGE-217): A Clinical Next Generation Neuroactive Steroid Positive Allosteric Modulator of the (γ-Aminobutyric Acid)A Receptor” (J Med Chem, 2017).

Sequence of Gamma-aminobutyric acid receptor subunit alpha-4/beta3/delta (P28472 whole entry): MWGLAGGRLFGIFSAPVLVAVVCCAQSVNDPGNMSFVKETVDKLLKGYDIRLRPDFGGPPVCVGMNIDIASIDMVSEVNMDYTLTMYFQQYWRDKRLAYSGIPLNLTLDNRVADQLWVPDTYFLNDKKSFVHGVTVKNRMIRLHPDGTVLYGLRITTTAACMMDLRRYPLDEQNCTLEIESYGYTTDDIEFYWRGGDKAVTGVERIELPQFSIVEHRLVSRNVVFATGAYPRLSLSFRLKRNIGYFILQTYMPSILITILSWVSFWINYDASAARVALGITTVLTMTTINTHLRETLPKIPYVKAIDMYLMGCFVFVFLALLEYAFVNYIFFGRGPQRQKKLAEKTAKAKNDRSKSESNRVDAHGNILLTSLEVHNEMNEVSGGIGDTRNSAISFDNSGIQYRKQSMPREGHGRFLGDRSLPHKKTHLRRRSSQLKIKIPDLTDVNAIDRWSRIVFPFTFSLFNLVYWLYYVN
Sequence of Gamma-aminobutyric acid receptor subunit alpha-4/beta3/delta (P48169 whole entry): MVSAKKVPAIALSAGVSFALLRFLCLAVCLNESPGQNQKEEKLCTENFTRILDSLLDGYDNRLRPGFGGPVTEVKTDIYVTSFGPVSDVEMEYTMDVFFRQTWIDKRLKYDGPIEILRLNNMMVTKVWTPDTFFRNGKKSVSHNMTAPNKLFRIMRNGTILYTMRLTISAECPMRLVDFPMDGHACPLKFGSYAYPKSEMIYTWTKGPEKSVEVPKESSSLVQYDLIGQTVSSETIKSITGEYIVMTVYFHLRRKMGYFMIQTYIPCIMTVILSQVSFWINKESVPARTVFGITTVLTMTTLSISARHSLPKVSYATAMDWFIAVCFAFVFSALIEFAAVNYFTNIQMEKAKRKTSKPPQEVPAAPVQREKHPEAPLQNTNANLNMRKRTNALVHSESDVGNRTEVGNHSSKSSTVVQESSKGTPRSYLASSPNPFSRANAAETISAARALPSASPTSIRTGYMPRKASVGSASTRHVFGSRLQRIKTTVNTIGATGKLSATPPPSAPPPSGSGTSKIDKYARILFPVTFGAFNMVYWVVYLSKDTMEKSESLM
Sequence of Gamma-aminobutyric acid receptor subunit alpha-4/beta3/delta (O14764 whole entry): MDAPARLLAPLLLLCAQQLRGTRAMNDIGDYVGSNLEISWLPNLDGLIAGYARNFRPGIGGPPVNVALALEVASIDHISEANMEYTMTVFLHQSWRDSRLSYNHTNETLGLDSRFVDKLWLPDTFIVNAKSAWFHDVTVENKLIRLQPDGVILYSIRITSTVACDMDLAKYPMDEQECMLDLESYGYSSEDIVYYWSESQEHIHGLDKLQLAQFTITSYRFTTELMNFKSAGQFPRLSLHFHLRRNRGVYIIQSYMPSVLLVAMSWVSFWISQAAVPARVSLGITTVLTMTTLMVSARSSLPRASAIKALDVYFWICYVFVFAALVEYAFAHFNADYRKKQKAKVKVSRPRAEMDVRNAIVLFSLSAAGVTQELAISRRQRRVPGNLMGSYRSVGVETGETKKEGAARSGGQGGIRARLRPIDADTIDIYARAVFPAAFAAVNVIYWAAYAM

Tested on in one data set: not listed separately
In words: Oral bioavailability in Sprague-Dawley rat at 20 mg/kg measured up to 8 hrs post dose by LC/MS-MS analysis. The settings on record: in vivo. It counts as ADME, organism-based.
As usually defined, the bioavailability is the share of a dose that reaches the circulation, judged against a reference dose that is usually intravenous. Higher therefore signals good availability. In turn, `Cc1cnn(CC(=O)[C@H]2CC[C@H]3[C@@H]4CC[C@@H]5C[C@](C)(O)CC[C@@H]5[C@H]4CC[C@]23C)n1` returned a bioavailability of 6%.

`CC(=O)[C@H]1CC[C@H]2[C@@H]3CC[C@H]4C[C@H](O)CC[C@]4(C)[C@H]3CC[C@]12C` [BREXANOLONE] returned a bioavailability of 2%.

Tested on in the next data set: not listed separately
In words: Thermodynamic aqueous solubility of compound at 10 uM sonicated for 1 min followed by incubation for 1 hr by HPLC-MS/MS. It counts as physicochemical. The note with it: buffer; read-out: Therm_solubility.
With `Cc1cnn(CC(=O)[C@H]2CC[C@H]3[C@@H]4CC[C@@H]5C[C@](C)(O)CC[C@@H]5[C@H]4CC[C@]23C)n1`, the solubility thermodynamic at 1 h, 10 µM worked out at 7 µM (≈ 2.8 µg/mL).

With `CC(=O)[C@H]1CC[C@H]2[C@@H]3CC[C@H]4C[C@H](O)CC[C@]4(C)[C@H]3CC[C@]12C` [BREXANOLONE], the solubility thermodynamic at 1 h, 10 µM worked out at 3.3 µM (≈ 1.05 µg/mL).

Tested on in the next data set: not listed separately
The experiment in a line: Clearance in mouse hepatic microsomes at 10 uM preincubated for 5 mins followed by NADPH addition measured over 60 mins by HPLC-MS/MS analysis. The note with it: liver microsomes. It counts as ADME, Microsome. A general note: Microsomes from liver hold many membrane-bound enzymes, among them those of drug oxidation.
With `Cc1cnn(CC(=O)[C@H]2CC[C@H]3[C@@H]4CC[C@@H]5C[C@](C)(O)CC[C@@H]5[C@H]4CC[C@]23C)n1`, the CLhep predicted at 10 µM is 81.7 mL/min/kg.

As for `CC(=O)[C@H]1CC[C@H]2[C@@H]3CC[C@H]4C[C@H](O)CC[C@]4(C)[C@H]3CC[C@]12C` [BREXANOLONE], the CLhep predicted at 10 µM is 66.7 mL/min/kg.

Tested on in another data set: not listed separately
In words: Ratio of drug level in CD1 mouse brain to plasma at 5 mg/kg, iv measured at 30 mins post dose by LC/MS-MS analysis. Type of data set: ADME, organism-based. The settings on record: read-out: BPR.
With `Cc1cnn(CC(=O)[C@H]2CC[C@H]3[C@@H]4CC[C@@H]5C[C@](C)(O)CC[C@@H]5[C@H]4CC[C@]23C)n1`, the Kp at 0.5 h was 1.

With `CC(=O)[C@H]1CC[C@H]2[C@@H]3CC[C@H]4C[C@H](O)CC[C@]4(C)[C@H]3CC[C@]12C` [BREXANOLONE], the Kp at 0.5 h was found to be 1.9.

In another data set the target is GABA-A receptor alpha-4/beta-3/delta (Homo sapiens, UniProt P28472+P48169+). In words: Positive allosteric modulation of GABAA receptor alpha4beta3delta (unknown origin) expressed in CHO cells assessed as potentiation of GABA-mediated increase in channel current under holding potential at -80 mV at 0.01 to 10 uM preincubated for 30 secs followed by GABA stimulation for 2 secs by manual patch clamp assay relative to GABA. It counts as cell-based. The note with it: 2 s.
Sequence of GABA-A receptor alpha-4/beta-3/delta (P28472 whole entry): as the sequence (P28472 whole entry) above
Sequence of GABA-A receptor alpha-4/beta-3/delta (P48169 whole entry): as the sequence (P48169 whole entry) above
Sequence of GABA-A receptor alpha-4/beta-3/delta (Q06278 whole entry, further chain): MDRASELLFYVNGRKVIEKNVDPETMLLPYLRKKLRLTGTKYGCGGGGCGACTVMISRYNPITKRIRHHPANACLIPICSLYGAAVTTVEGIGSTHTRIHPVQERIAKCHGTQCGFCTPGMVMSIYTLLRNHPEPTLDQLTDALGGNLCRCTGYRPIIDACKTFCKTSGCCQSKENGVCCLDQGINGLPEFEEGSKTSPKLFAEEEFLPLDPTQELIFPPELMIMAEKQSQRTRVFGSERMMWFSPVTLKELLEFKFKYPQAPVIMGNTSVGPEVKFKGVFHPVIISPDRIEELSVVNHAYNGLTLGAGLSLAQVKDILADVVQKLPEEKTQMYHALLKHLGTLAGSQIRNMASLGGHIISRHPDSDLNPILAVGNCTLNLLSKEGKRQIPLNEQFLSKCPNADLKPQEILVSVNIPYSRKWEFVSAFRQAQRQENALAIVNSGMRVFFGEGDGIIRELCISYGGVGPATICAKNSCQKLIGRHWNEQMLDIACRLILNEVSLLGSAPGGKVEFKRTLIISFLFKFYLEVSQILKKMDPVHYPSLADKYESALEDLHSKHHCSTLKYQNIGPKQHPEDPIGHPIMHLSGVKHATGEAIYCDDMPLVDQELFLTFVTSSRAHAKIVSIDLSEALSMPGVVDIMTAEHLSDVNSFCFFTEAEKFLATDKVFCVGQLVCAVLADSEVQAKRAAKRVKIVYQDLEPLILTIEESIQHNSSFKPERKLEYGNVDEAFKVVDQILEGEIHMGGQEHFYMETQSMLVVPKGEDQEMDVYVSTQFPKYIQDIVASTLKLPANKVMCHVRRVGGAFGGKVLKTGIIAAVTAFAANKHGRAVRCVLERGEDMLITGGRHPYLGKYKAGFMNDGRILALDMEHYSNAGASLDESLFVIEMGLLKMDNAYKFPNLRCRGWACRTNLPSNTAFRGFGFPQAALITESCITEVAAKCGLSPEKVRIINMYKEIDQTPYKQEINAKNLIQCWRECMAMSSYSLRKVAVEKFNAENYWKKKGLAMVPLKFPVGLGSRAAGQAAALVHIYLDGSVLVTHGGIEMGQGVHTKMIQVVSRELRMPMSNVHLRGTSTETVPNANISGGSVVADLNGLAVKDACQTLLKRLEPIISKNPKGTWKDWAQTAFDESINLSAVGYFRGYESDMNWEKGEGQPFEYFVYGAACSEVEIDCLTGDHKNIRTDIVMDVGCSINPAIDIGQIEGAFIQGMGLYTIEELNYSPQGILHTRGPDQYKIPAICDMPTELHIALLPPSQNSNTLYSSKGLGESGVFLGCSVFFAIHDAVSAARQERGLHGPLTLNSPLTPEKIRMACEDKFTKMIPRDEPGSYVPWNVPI
The term Emax denotes the maximal effect, on the per cent scale that the assay sets. Turning to `Cc1cnn(CC(=O)[C@H]2CC[C@H]3[C@@H]4CC[C@@H]5C[C@](C)(O)CC[C@@H]5[C@H]4CC[C@]23C)n1`, the maximum response (Emax) stood at 614%.

In the case of `CC(=O)[C@H]1CC[C@H]2[C@@H]3CC[C@H]4C[C@H](O)CC[C@]4(C)[C@H]3CC[C@]12C` [BREXANOLONE], the Emax was found to be 430%.

Tested on in another data set: not listed separately
The experiment in a line: Clearance in human hepatic microsomes at 10 uM preincubated for 5 mins followed by NADPH addition measured over 60 mins by HPLC-MS/MS analysis. Type of data set: ADME, Microsome. The note with it: liver microsomes.
For `Cc1cnn(CC(=O)[C@H]2CC[C@H]3[C@@H]4CC[C@@H]5C[C@](C)(O)CC[C@@H]5[C@H]4CC[C@]23C)n1`, the CLhep predicted at 10 µM was 5 mL/min/kg.

Tested on in a further data set: not listed separately
The experiment in a line: Ratio of drug level in Sprague-Dawley rat brain to plasma at 5 mg/kg, iv measured at 30 mins post dose by LC/MS-MS analysis. Type of data set: ADME, organism-based. The note with it: read-out: BPR.
`CC(=O)[C@H]1CC[C@H]2[C@@H]3CC[C@H]4C[C@H](O)CC[C@]4(C)[C@H]3CC[C@]12C` [BREXANOLONE]: the Kp at 0.5 h came to 1.8.

Another data set concerns the target Gamma-aminobutyric acid receptor subunit alpha-4/beta3/delta (Homo sapiens, UniProt O14764+P28472+P48169). The experiment in a line: Positive allosteric modulation of GABAA receptor alpha4beta3delta (unknown origin) expressed in CHO cells assessed as potentiation of GABA-mediated increase in channel current under holding potential at -80 mV preincubated for 30 secs followed by GABA stimulation for 2 secs by manual patch clamp assay. It counts as cell-based.
Conditions: not given
Usually EC50 stands for the concentration that produces a half-maximal response. With `Cc1cnn(CC(=O)[C@H]2CC[C@H]3[C@@H]4CC[C@@H]5C[C@](C)(O)CC[C@@H]5[C@H]4CC[C@]23C)n1`, the EC50 amounted to 192 nM.

With `CC(=O)[C@H]1CC[C@H]2[C@@H]3CC[C@H]4C[C@H](O)CC[C@]4(C)[C@H]3CC[C@]12C` [BREXANOLONE], the EC50 is 75.5 nM.

Tested on in the next data set: not listed separately
The experiment in a line: Displacement of [35S]TBPS from GABA-A receptor in Sprague-Dawley rat cerebral cortex cell membranes after 90 mins in presence of GABA by liquid scintillation counting.
Conditions: not given
On the technique in general: Loss of bound radioactivity is the signal in a displacement assay; it reports binding, not function.
What is called IC50 is the concentration needed to halve the response being measured. With `Cc1cnn(CC(=O)[C@H]2CC[C@H]3[C@@H]4CC[C@@H]5C[C@](C)(O)CC[C@@H]5[C@H]4CC[C@]23C)n1`, the IC50 stood at 21 nM.

Turning to `CC(=O)[C@H]1CC[C@H]2[C@@H]3CC[C@H]4C[C@H](O)CC[C@]4(C)[C@H]3CC[C@]12C` [BREXANOLONE], the IC50 was found to be 22 nM.

Tested on in the next data set: not listed separately
The experiment in a line: Oral bioavailability in CD1 mouse at 20 mg/kg measured up to 8 hrs post dose by LC/MS-MS analysis. The note with it: in vivo. Type of data set: ADME, organism-based.
With `Cc1cnn(CC(=O)[C@H]2CC[C@H]3[C@@H]4CC[C@@H]5C[C@](C)(O)CC[C@@H]5[C@H]4CC[C@]23C)n1`, the bioavailability stood at 39%.

The target in a further data set is GABA-A receptor; alpha-1/beta-2/gamma-2 (Homo sapiens) (UniProt P14867+P47870+P18507). In words: Positive allosteric modulation of GABAA receptor alpha1beta2gamma2 (unknown origin) expressed in mouse LTK cells assessed as potentiation of GABA-mediated increase in channel current under holding potential at -80 mV at 0.01 to 10 uM preincubated for 30 secs followed by GABA stimulation for 2 secs by automated patch clamp assay relative to GABA. It counts as cell-based.
Conditions: not given
(Patch clamp records ionic current or voltage across a cell membrane.)
Regarding `Cc1cnn(CC(=O)[C@H]2CC[C@H]3[C@@H]4CC[C@@H]5C[C@](C)(O)CC[C@@H]5[C@H]4CC[C@]23C)n1`, the Emax came to 532%.

For the compound `CC(=O)[C@H]1CC[C@H]2[C@@H]3CC[C@H]4C[C@H](O)CC[C@]4(C)[C@H]3CC[C@]12C` [BREXANOLONE], the Emax was determined as 510%.

Tested on in another data set: not listed separately
In words: Clearance in rat hepatic microsomes at 10 uM preincubated for 5 mins followed by NADPH addition measured over 60 mins by HPLC-MS/MS analysis. Type of data set: ADME, Microsome. The settings on record: liver microsomes.
On to `Cc1cnn(CC(=O)[C@H]2CC[C@H]3[C@@H]4CC[C@@H]5C[C@](C)(O)CC[C@@H]5[C@H]4CC[C@]23C)n1`, for which the CLhep predicted at 10 µM is 53.3 mL/min/kg.

For the compound `CC(=O)[C@H]1CC[C@H]2[C@@H]3CC[C@H]4C[C@H](O)CC[C@]4(C)[C@H]3CC[C@]12C` [BREXANOLONE], the CLhep predicted at 10 µM was 55 mL/min/kg.

For the next data set, the target named is T1, GABA-A receptor; alpha-1/beta-2/gamma-2 (Homo sapiens, UniProt P14867+P18507+P47870).
T1 sequence (P14867 whole entry): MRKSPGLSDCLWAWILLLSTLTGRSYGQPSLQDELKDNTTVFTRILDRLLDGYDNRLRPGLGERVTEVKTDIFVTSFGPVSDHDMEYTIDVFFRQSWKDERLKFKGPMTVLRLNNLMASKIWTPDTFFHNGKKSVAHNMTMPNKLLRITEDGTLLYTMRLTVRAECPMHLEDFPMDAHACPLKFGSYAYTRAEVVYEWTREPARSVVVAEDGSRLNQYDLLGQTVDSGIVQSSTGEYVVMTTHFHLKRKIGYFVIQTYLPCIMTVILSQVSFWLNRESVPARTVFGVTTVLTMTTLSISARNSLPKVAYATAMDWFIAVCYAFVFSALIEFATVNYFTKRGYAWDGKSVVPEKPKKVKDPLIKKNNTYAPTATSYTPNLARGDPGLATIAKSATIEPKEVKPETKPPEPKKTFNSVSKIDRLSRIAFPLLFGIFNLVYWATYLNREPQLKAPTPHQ
T1 sequence (P47870 whole entry): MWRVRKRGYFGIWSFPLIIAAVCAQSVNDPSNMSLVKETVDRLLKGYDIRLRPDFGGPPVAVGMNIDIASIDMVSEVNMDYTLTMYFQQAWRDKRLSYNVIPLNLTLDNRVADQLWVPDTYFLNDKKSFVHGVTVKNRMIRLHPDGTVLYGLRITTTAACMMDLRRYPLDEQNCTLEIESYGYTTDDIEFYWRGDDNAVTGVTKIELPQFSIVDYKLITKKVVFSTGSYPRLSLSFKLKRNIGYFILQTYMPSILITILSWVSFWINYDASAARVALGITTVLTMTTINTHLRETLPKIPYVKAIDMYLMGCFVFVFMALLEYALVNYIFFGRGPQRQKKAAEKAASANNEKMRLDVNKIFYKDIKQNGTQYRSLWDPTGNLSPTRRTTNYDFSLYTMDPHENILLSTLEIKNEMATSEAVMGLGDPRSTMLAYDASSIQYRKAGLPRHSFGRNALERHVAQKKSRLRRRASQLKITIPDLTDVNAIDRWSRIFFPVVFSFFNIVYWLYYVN
T1 sequence (P18507 whole entry): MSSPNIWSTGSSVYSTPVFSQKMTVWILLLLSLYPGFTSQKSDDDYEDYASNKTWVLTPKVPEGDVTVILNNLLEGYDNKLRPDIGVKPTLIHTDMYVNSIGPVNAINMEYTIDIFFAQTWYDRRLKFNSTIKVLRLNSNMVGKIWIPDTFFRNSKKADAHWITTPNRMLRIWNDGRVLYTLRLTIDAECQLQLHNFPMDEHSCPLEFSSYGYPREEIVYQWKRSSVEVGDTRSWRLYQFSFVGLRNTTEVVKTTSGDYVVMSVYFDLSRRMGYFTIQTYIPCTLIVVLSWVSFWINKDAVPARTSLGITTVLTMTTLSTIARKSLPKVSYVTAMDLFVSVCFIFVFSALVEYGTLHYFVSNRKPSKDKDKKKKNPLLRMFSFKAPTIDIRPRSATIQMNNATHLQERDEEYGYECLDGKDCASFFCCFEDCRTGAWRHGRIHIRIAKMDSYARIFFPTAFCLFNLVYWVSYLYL
The experiment in a line: Positive allosteric modulation of GABAA receptor alpha1beta2gamma2 (unknown origin) expressed in mouse LTK cells assessed as potentiation of GABA-mediated increase in channel current under holding potential at -80 mV preincubated for 30 secs followed by GABA stimulation for 2 secs by automated patch clamp assay. Type of data set: cell-based.
Conditions: not given
On to `Cc1cnn(CC(=O)[C@H]2CC[C@H]3[C@@H]4CC[C@@H]5C[C@](C)(O)CC[C@@H]5[C@H]4CC[C@]23C)n1`, for which the EC50 worked out at 1640 nM.

In the case of `CC(=O)[C@H]1CC[C@H]2[C@@H]3CC[C@H]4C[C@H](O)CC[C@]4(C)[C@H]3CC[C@]12C` [BREXANOLONE], the EC50 came to 237 nM.

Tested on in another data set: not listed separately
The experiment in a line: Clearance in Sprague-Dawley rat at 5 mg/kg, iv or 20 mg/kg, po measured up to 8 hrs post dose by LC/MS-MS analysis. It counts as ADME, organism-based. The settings on record: in vivo.
The compound `Cc1cnn(CC(=O)[C@H]2CC[C@H]3[C@@H]4CC[C@@H]5C[C@](C)(O)CC[C@@H]5[C@H]4CC[C@]23C)n1` showed a clearance of 50 mL/min/kg.

Tested on in a further data set: not listed separately
The experiment in a line: Clearance in CD1 mouse at 5 mg/kg, iv or 20 mg/kg, po measured up to 8 hrs post dose by LC/MS-MS analysis. Type of data set: ADME, organism-based. The note with it: in vivo.
As for `Cc1cnn(CC(=O)[C@H]2CC[C@H]3[C@@H]4CC[C@@H]5C[C@](C)(O)CC[C@@H]5[C@H]4CC[C@]23C)n1`, the clearance is 61.7 mL/min/kg.

Turning to `CC(=O)[C@H]1CC[C@H]2[C@@H]3CC[C@H]4C[C@H](O)CC[C@]4(C)[C@H]3CC[C@]12C` [BREXANOLONE], the clearance is 200 mL/min/kg.
